Biological target: Carbonic anhydrase 6 (Homo sapiens, UniProt P23280)
Sequence (P23280 whole entry): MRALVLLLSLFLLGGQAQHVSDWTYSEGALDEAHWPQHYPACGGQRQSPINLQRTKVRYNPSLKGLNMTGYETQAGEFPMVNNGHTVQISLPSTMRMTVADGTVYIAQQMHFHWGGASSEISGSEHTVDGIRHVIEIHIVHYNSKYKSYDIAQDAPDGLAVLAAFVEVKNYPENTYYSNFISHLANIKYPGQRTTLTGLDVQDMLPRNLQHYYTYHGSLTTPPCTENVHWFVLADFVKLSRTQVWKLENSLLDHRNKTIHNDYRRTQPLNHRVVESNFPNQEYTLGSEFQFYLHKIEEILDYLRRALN

Row | Ki | Compound
1 | 94 nM | Cc1ccc(-c2cc(C(F)(F)F)nn2-c2ccc(S(N)(=O)=O)cc2)cc1 [CELECOXIB]

Biological target: T1, Carbonic anhydrase 15 (Mus musculus, UniProt Q99N23)
T1 sequence (Q99N23 whole entry): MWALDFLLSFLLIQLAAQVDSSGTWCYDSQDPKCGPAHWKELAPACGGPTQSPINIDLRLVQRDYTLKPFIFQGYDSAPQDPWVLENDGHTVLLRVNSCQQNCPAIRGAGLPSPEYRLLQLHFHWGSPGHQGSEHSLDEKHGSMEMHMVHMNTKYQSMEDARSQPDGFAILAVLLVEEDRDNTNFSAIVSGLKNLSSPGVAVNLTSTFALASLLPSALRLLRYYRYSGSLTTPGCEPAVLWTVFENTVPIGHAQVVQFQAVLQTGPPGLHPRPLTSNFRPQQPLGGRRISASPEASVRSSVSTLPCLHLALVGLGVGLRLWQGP

Row | Compound | Ki
2 | NS(=O)(=O)Cc1noc2ccccc12 [ZONISAMIDE] | 634 nM
3 | NS(=O)(=O)c1ccc(CO)cc1 | 4560 nM
4 | Nc1nccc(Nc2ccc(S(N)(=O)=O)cc2)n1 | 67 nM
5 | NNc1ccccc1S(N)(=O)=O | 6900 nM
6 | NCc1ccc(S(N)(=O)=O)cc1 [MAFENIDE] | 970 nM
7 | Nc1ccc(S(=O)(=O)NCc2ccc(S(N)(=O)=O)cc2)cc1 | 49 nM
8 | CCOc1ccc2nc(S(N)(=O)=O)sc2c1 [ETHOXZOLAMIDE] | 58 nM
9 | NS(=O)(=O)c1nc2ccc(O)cc2s1 | 64 nM
10 | CC(=O)/N=c1/sc(S(N)(=O)=O)nn1C [METHAZOLAMIDE] | 65 nM
11 | Cn1nc(S(N)(=O)=O)sc1=N | 49 nM
12 | Nc1cc(Cl)c(S(N)(=O)=O)cc1S(N)(=O)=O | 757 nM
13 | NS(=O)(=O)c1nnc(NS(=O)(=O)c2ccccc2)s1 [BENZOLAMIDE] | 70 nM
14 | NNc1ccc(S(N)(=O)=O)cc1 | 9540 nM

More lines, now with the values ahead:

Row | Ki | Compound
15 | 48 nM | Nc1nnc(S(N)(=O)=O)s1
16 | 9610 nM | Nc1ccc(S(N)(=O)=O)cc1 [SULFANILAMIDE]
17 | 4660 nM | NS(=O)(=O)c1ccc(CCO)cc1
18 | 4650 nM | NS(=O)(=O)c1ccc(C(=O)O)cc1 [CARZENIDE]
19 | 78 nM | CC1(C)O[C@@H]2[C@@H](CO[C@@]3(COS(N)(=O)=O)OC(C)(C)O[C@@H]23)O1 [TOPIRAMATE]
20 | 95 nM | NS(=O)(=O)c1cc(Cl)c(Cl)c(S(N)(=O)=O)c1 [DICHLORPHENAMIDE]
21 | 83 nM | Nc1ccc(S(N)(=O)=O)cc1Br
22 | 60 nM | NS(=O)(=O)c1nnc(-c2ccccc2Cl)s1
23 | 8810 nM | Nc1ccccc1S(N)(=O)=O
24 | 63 nM | Nc1ccc(S(=O)(=O)NCCc2ccc(S(N)(=O)=O)cc2)cc1
25 | 72 nM | NS(=O)(=O)c1ccc(S(=O)(=O)Nc2cccc3c(Cl)c[nH]c23)cc1
26 | 61 nM | CCN[C@H]1CN(CCCOC)S(=O)(=O)c2sc(S(N)(=O)=O)cc21 [BRINZOLAMIDE]
27 | 62 nM | Nc1ccc(S(N)(=O)=O)cc1Cl
28 | 7990 nM | Cc1ccc(S(N)(=O)=O)cc1 [P-TOLUENESULFONAMIDE]
29 | 79 nM | Nc1ccc(S(N)(=O)=O)cc1F

— ChEMBL document CHEMBL1143395, “Cloning, expression, post-translational modifications and inhibition studies on the latest mammalian carbonic anhydrase isoform, CA XV” (J Med Chem, 2009)
